Measured values as given in patent publication US7029840B2 (priority 2000, dated 2006).
Where two headings read alike, the source gives them in different places.

Legend:
[1] = test system: N. gonorrhoeae plasmid DNA; test: Stability of N. gonorrhoeae plasmid DNA in urine, 3 days at room temperature (SDA, MOTA value); assay type: biochemical, Neisseria gonorrhoeae; settings: 100 mM
Experimental: The samples were incubated for 3 days at room temperature. […] SDA was performed on the isolated DNA as described in Example 1.

[2] = test system: intact cells of N. gonorrhoeae; assay type: cell-based, N. gonorrhoeae ATCC 19424; settings: for average MOTA values for day 0 versus day 6: 100 mM sodium citrate, sodium fluoride, sodium borate, 5 mM EDTA, urine at 5, 25, 35, and 45° C.; for Average MOTA Value: 100 mM, urine
Experimental: (§1) The samples were spiked with cells of N. gonorrhoeae a final concentration 2500 cells/ml. Each sample was incubated for 14 days at room temperature. At specific time points (day 0, 6, and 14), 2.0-ml volumes of each sample (eight replicates) was centrifuged at 2000×g for 30 minutes at room temperature. The supernate was decanted and the cell pellet was resuspended with a 2.0-ml volume of BSA/PBS, and then centrifuged at 2000×g for 30 minutes at room temperature. Again, the supernatant was decanted and the cell pellet was resuspended with a 2.0-ml volume of CT/GC diluent. […] SDA was performed on the cell lysate as described in Example 1.
The samples were spiked with cells of N. gonorrhoeae at a final concentration of 2500 cells/ml. Each sample was incubated for 6 days at 5, 25, 35, and 45° C. At specific time points (day 0 and 6), the samples were processed by centrifugation at 2000×g as described in Example 2. […] SDA was performed on the cell lysates as described in Example 1.

[3] = test system: intact cells of N. gonorrhoeae; test: Stability of cells of N. gonorrhoeae in urine with sodium citrate, 14 days at room temperature (SDA, MOTA value); assay type: cell-based, N. gonorrhoeae ATCC 19424; settings: 100 mM; for Average MOTA Value: urine
Experimental: as §1

[4] = test system: N. gonorrhoeae plasmid DNA; settings: for Average MOTA Value: 60 min room temperature after DNA spike
Experimental: Twenty-milliliter volumes of negative pooled urine were prepared with 10, 40, and 100 mM sodium citrate (final concentration); 10, 20, and 40 mM EDTA (final concentration); and without chemical additive. In addition, a 20-ml volume of negative pooled urine was heated for 30 minutes (heated-treated urine). The samples were incubated for 60 minutes at room temperature. After the incubation step, the samples were spiked with N. gonorrhoeae plasmid DNA (2500 DNA copies/ml). The samples were incubated for 60 minutes at room temperature. After the incubation step, two-ml volumes from each sample (eight replicates) were heated for 30 minutes at 114° C. to denature the DNA.
A 1-ml volume of the 8 replicates as described above was added to ferrosoferric oxide. A 100-ul volume of 6 M glycine HCl was added to each sample. The DNA-ferrosoferric oxide complexes were separated on a magnet and washed two times with a 900-ul volume of 1 mM glycine HCl to reduce the ionic strength and remove nonspecifically bound materials. The DNA was released from the ferrosoferric oxide with 480-ul volume of elution buffer (88.3 mM KOH, 177.8 mM bicine, 12.1% (v/v) glycerol, and 11.0% (v/v) DMSO [final concentration]).
Strand Displacement Amplification (SDA) was performed according to the manufacturer's instructions (BDProbeTec™ET Chlamydia trachomatis and N. gonorrhoeae Amplified DNA Assay Package Insert L-000203 [November 1999]). A 150-ul volume of each sample was added into a priming microwell. The priming microwell plate was incubated for 20 minutes at room temperature, after which the plate was incubated at 72.5° C. The amplification microwell plate was incubated at 54° C. After 10 minutes, a 100-ul volume from each priming microwell was added into the corresponding amplification microwell. The amplification microwell plate was place in a BD ProbeTec ET instrument. Data was reported as MOTA value (metric other than acceleration).

[5] = test system: intact cells of N. gonorrhoeae; assay type: cell-based, N. gonorrhoeae ATCC 19424; settings: urine, room temperature; for average amplification MOTA values at day 0 versus day 6: 100 mM sodium citrate, sodium fluoride, sodium borate, 5 mM EDTA
Experimental: as §1
Forty-milliliter volumes of negative urine was prepared with 100 mM sodium citrate (final concentration); 5, 10, and 15% (v/v) sucrose (final concentration); 5, 10, and 15% (v/v) PVP (final concentration); 5, 10, and 15 mM magnesium chloride (final concentration); 10 and 100 mM sodium fluoride (final concentration); 10 and 100 mM sodium formate (final concentration); 10 and 100 mM sodium borate (final concentration); 0.5 and 5 mM EDTA (final concentration); 0.5 and 5 mM EGTA (final concentration); and without chemical additive. The samples were spiked with cells of N. gonorrhoeae at a final concentration of 2500 cells/ml. Each sample was incubated for 6 days at room temperature. At specific time points (day 0 and 6), the samples were processed by centrifugation at 2000×g as described in Example 2. […] SDA was performed on the cell lysate as described in Example 1.

| Structure (SMILES) | Average MOTA Value ([1]; Day 0) | Average MOTA Value ([1]; Day 3) | average MOTA values for day 0 versus day 6 [2] | Average MOTA Value ([2]; 5° C., Day 0) | Average MOTA Value ([2]; 5° C., Day 6) | Average MOTA Value ([2]; 25° C., Day 0) | Average MOTA Value ([2]; 25° C., Day 6) | Average MOTA Value ([2]; 35° C., Day 0) | Average MOTA Value ([2]; 35° C., Day 6) | Average MOTA Value ([2]; 45° C., Day 0) | Average MOTA Value ([2]; 45° C., Day 6) | average amplification MOTA values at day 0 versus day 6 [5] | Average MOTA Value ([5]; 100 mM, Day 0) | Average MOTA Value ([5]; 100 mM, Day 6) | Average MOTA Value ([5]; 10 mM, Day 0) | Average MOTA Value ([5]; 10 mM, Day 6) | further results |
| --- | --- | --- | --- | --- | --- | --- | --- | --- | --- | --- | --- | --- | --- | --- | --- | --- | --- |
| O=C([O-])CC(O)(CC(=O)[O-])C(=O)[O-].[Na+].[Na+].[Na+] [sodium citrate, Sodium citrate, trisodium salt] | 26852 | 30978 | no significant difference | 56773 | 57701 | 59703 | 51791 | 54238 | 51468 | 59944 | 63623 | not significantly different | 27310 | 26394 | – | – | time for which stability of intact cells of N. gonorrhoeae in human urine was maintained [3]: ≥ 14 days; Average MOTA Value ([3]; Day 0): 30200; Average MOTA Value ([3]; Day 6): 25391; Average MOTA Value ([3]; Day 10): 27522; Average MOTA Value ([3]; Day 14): 20953; Average MOTA Value ([4]; 10 mM additive in human urine): 6673; Average MOTA Value ([4]; 40 mM additive in human urine): 36684; Average MOTA Value ([4]; 100 mM additive in human urine): 24069; protection of N. gonorrhoeae plasmid DNA from degradation in human urine by endogenous nucleases ([4]; sodium citrate at 10, 20, and 40 mM, EDTA at 10, 40, 100 mM (so in the source)): protected N. gonorrhoeae plasmid DNA from degradation |
| [F-].[Na+] [sodium fluoride, Sodium fluoride] | 27811 | 42689 | no significant difference | 43807 | 59543 | 44945 | 47391 | 41608 | 47347 | 45741 | 48043 | not significantly different | 26385 | 24559 | 32162 | 10894 | – |
| O=C[O-].[Na+] [sodium formate, Sodium formate] | – | – | – | – | – | – | – | – | – | – | – | – | 29357 | 2139 | 34446 | 2211 | – |
| OC[C@H]1O[C@@](CO)(O[C@H]2O[C@H](CO)[C@@H](O)[C@H](O)[C@H]2O)[C@@H](O)[C@@H]1O [sucrose, Sucrose] | – | – | – | – | – | – | – | – | – | – | – | – | – | – | – | – | Average MOTA Value ([5]; 5% (v/v), Day 0): 28427; Average MOTA Value ([5]; 5% (v/v), Day 6): 501; Average MOTA Value ([5]; 10% (v/v), Day 0): 29548; Average MOTA Value ([5]; 10% (v/v), Day 6): 5555; Average MOTA Value ([5]; 15% (v/v), Day 0): 27391; Average MOTA Value ([5]; 15% (v/v), Day 6): 8497 |
